The source made the active and inactive calls.
Assays:
Format in all cases: cell-based
[1] = biological target: T1, Bile acid receptor (Homo sapiens) (UniProt Q96RI1); assay: Agonist activity at FXR LBD (unknown origin) transiently transfected in HEK293T cells at 1 uM incubated for 16 hrs by Gal4-hybrid reporter gene based Dual-glo luciferase assay
T1 sequence (whole entry): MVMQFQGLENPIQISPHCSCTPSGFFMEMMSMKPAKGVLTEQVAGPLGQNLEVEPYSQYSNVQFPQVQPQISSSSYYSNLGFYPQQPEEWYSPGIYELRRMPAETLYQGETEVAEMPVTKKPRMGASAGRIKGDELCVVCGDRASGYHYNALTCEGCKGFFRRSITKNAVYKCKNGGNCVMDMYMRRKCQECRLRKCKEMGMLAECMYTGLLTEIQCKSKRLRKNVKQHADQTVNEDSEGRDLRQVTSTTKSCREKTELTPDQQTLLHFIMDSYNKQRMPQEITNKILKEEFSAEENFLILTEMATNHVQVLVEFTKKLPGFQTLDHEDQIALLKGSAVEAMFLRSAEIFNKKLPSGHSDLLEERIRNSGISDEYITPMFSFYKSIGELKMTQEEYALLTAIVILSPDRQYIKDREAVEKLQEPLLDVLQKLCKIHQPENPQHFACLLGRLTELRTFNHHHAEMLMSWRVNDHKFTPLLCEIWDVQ

[2] = biological target: T2, Vitamin D3 receptor (Homo sapiens) (UniProt P11473); assay: Agonist activity at VDR LBD (unknown origin) transiently transfected in HEK293T cells at 1 uM incubated for 16 hrs by Gal4-hybrid reporter gene based Dual-glo luciferase assay
T2 sequence (whole entry): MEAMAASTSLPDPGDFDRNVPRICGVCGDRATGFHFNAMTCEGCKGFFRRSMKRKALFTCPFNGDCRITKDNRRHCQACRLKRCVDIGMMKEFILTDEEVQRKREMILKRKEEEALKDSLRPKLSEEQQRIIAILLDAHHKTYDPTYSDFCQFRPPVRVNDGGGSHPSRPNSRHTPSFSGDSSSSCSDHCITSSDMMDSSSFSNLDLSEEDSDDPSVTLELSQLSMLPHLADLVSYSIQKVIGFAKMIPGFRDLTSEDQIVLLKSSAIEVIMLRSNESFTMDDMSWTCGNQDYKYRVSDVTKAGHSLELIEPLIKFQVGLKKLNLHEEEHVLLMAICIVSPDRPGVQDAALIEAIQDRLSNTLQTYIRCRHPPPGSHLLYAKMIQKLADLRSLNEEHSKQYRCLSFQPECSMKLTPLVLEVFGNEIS

[3] = Selectivity ratio for agonist activity at RXRalpha LBD (unknown origin) transiently transfected in HEK293T cells to agonist activity at human Nur77 LBD transiently transfected in HEK293T cells
[4] = Selectivity ratio for agonist activity at THRalpha LBD (unknown origin) transiently transfected in HEK293T cells to agonist activity at human Nur77 LBD transiently transfected in HEK293T cells
[5] = Selectivity ratio for agonist activity at RARalpha LBD (unknown origin) transiently transfected in HEK293T cells to agonist activity at human Nur77 LBD transiently transfected in HEK293T cells
[6] = biological target: T3, Peroxisome proliferator-activated receptor delta (Homo sapiens) (UniProt Q03181); assay: Agonist activity at PPARdelta LBD (unknown origin) transiently transfected in HEK293T cells at 1 uM incubated for 16 hrs by Gal4-hybrid reporter gene based Dual-glo luciferase assay
T3 sequence (whole entry): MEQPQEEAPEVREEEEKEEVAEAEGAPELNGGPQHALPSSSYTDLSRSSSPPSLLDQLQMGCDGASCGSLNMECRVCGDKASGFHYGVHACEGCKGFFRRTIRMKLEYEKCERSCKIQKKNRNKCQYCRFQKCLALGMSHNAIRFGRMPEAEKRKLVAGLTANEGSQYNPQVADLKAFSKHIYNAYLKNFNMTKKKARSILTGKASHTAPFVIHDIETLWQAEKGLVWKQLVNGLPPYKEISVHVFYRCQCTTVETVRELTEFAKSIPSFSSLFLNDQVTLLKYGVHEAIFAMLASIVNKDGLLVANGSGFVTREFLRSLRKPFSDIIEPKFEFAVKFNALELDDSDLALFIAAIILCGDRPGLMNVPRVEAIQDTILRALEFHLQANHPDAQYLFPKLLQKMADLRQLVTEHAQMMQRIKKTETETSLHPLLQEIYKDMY

[7] = Selectivity ratio for agonist activity at PPARdelta LBD (unknown origin) transiently transfected in HEK293T cells to agonist activity at human NOR-1 LBD transiently transfected in HEK293T cells
[8] = Selectivity ratio for agonist activity at FXR LBD (unknown origin) transiently transfected in HEK293T cells to agonist activity at human Nurr1 LBD transiently transfected in HEK293T cells
[9] = biological target: T4, Peroxisome proliferator-activated receptor gamma (Homo sapiens) (UniProt P37231); assay: Agonist activity at PPARgamma LBD (unknown origin) transiently transfected in HEK293T cells at 1 uM incubated for 16 hrs by Gal4-hybrid reporter gene based Dual-glo luciferase assay
T4 sequence (whole entry): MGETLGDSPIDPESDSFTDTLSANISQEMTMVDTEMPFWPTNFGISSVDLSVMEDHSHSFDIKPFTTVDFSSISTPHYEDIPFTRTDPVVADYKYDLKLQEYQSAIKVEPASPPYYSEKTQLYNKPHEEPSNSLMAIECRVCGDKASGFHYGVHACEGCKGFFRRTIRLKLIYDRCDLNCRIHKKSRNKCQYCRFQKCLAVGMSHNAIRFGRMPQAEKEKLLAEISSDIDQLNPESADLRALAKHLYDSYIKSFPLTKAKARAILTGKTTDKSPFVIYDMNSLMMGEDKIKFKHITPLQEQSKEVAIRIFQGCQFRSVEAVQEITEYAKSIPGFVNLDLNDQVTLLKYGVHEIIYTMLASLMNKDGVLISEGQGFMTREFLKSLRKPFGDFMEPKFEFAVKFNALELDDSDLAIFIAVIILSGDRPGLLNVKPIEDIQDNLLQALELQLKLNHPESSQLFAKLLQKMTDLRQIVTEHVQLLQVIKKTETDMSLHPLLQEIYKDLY

CC(C)(C)c1ccc(COc2cccc(C(=O)O)c2)cc1
> 30: Selectivity ratio [3] | Selectivity ratio [4] | Selectivity ratio [5] | Selectivity ratio [7] | Selectivity ratio [8]
inactive: Activity [1] | Activity [2] | Activity [6] | Activity [9]

— ChEMBL document CHEMBL5390264, “Exploring Fatty Acid Mimetics as NR4A Ligands” (J Med Chem, 2023)
